Source: patent US4740601A, “Imidazole derivatives having antimicrobial activities” (SS Pharmaceutical Co., Ltd., priority 1985, dated 1988)
Like-named read-outs stand apart in the source and are kept apart here.

How the values were obtained:
Type in all cases: cell-based
[1] = system: Microsporum cookei IFO 8303; experiment: antimicrobial activity, MIC; conditions: Paraphyton cookei, IFO8303, Microsporum cookei IFO 8303; read-out: MIC
[2] = system: Pyricularia oryzae IAM 5016; experiment: microbe, parasite or virus in culture; conditions: Pyricularia oryzae, IAM5016, Pyricularia oryzae IAM 5016
[3] = system: Aspergillus niger ATCC 9642; experiment: antimicrobial activity, MIC; conditions: Aspergillus niger, ATCC9642, Aspergillus niger ATCC 9642; read-out: MIC
[4] = system: Trichophyton mentagrophytes IFO 5812; experiment: antimicrobial activity, MIC
[5] = system: Trichophyton mentagrophytes QM 248; experiment: antimicrobial activity, MIC; conditions: Trichophyton mentagrophytes, QM248, Trichophyton mentagrophytes QM 248; read-out: MIC
[6] = system: Bacillus subtilis ATCC 6633; experiment: antimicrobial activity, MIC; conditions: Bacillus subtilis, ATCC6633, Bacillus subtilis ATCC 6633; read-out: MIC
[7] = system: Penicillium chrysogenum ATCC 6010; experiment: antimicrobial activity, MIC; conditions: Penicillium chrysogenum, ATCC6010, Penicillium chrysogenum ATCC 6010; read-out: MIC
[8] = system: Epidermophyton floccosum IFO 9045; experiment: antimicrobial activity, MIC; conditions: Epidermophyton floccosum, IFO9045, Epidermophyton floccosum IFO 9045; read-out: MIC
Candida albicans Yu-1200 = experiment: antimicrobial activity, MIC; conditions: YU1200, read-out: MIC
[9] = system: Staphylococcus aureus Smith; experiment: antimicrobial activity, MIC; conditions: Staphylococcus aureus, read-out: MIC
[10] = system: Saccharomyces cerevisiae ATCC 9763; experiment: antimicrobial activity, MIC; conditions: Saccharomyces cerevisiae, ATCC9763, Saccharomyces cerevisiae ATCC 9763; read-out: MIC
[11] = system: Streptococcus faecalis IFO 12964; experiment: antimicrobial activity, MIC; conditions: Enterococcus faecalis, IFO12964, Streptococcus faecalis IFO 12964; read-out: MIC
[12] = system: Staphylococcus aureus FDA 209P; experiment: antimicrobial activity, MIC; conditions: Staphylococcus aureus, FDA209P, read-out: MIC
Sarcina lutea ATCC 9341 = experiment: antimicrobial activity, MIC; conditions: Micrococcus luteus, ATCC9341, Sarcina lutea ATCC 9341; read-out: MIC
[13] = system: Staphylococcus aureus Terajima; experiment: antimicrobial activity, MIC; conditions: Staphylococcus aureus, read-out: MIC
[14] = system: Helminthosporium sesamum IAM 5012; experiment: antimicrobial activity, MIC; conditions: Helminthosporium, IAM5012, Helminthosporium sesamum IAM 5012; read-out: MIC
Saccharomyces ruxii 6507 = experiment: antimicrobial activity, MIC
[15] = system: Gibberella fujikuroi IAM 8046; experiment: antimicrobial activity, MIC; conditions: Fusarium fujikuroi, IAM8046, Gibberella fujikuroi IAM 8046; read-out: MIC
[16] = system: Aspergillus oryzae IMF 4014; experiment: antimicrobial activity, MIC; conditions: Aspergillus oryzae, IMF4014, Aspergillus oryzae IMF 4014; read-out: MIC
[17] = system: Microsporum audounii IFO 6074; experiment: antimicrobial activity, MIC; conditions: Microsporum, IFO6074, Microsporum audounii IFO 6074; read-out: MIC
[18] = system: Staphylococcus epidermidis ATCC 12228; experiment: antimicrobial activity, MIC; conditions: Staphylococcus epidermidis, ATCC12228, Staphylococcus epidermidis ATCC 12228; read-out: MIC
[19] = system: Cladosporium fulvum IAM 5006; experiment: antimicrobial activity, MIC; conditions: Fulvia fulva, IAM5006, Cladosporium fulvum IAM 5006; read-out: MIC
[20] = system: Micrococcus lysodeixticus IFO 3333; experiment: antimicrobial activity, MIC; conditions: Micrococcus, IFO3333, Micrococcus lysodeixticus IFO 3333; read-out: MIC
[21] = system: Trichophyton tonsurans IFO 5928; experiment: antimicrobial activity, MIC; conditions: Trichophyton tonsurans, IFO5928, Trichophyton tonsurans IFO 5928; read-out: MIC
[22] = system: Microsporum gypseum IFO 8231; experiment: antimicrobial activity, MIC; conditions: Nannizzia gypsea, IFO8231, Microsporum gypseum IFO 8231; read-out: MIC
[23] = system: Trichophyton rubrum NHL J; experiment: antimicrobial activity, MIC; conditions: Trichophyton rubrum
[24] = system: Candida albicans NHL 4019; experiment: antimicrobial activity, MIC; conditions: Candida albicans, NHL4019, Candida albicans NHL 4019; read-out: MIC
[25] = system: Debaryomyces kloeckeri IFO 0015; experiment: antimicrobial activity, MIC; conditions: IFO0015, read-out: MIC
[26] = system: Fusarium moniliforme IAM 5062; experiment: antimicrobial activity, MIC; conditions: Fusarium verticillioides, IAM5062, Fusarium moniliforme IAM 5062; read-out: MIC
[27] = Trichophyton mentagrophytes, IFO5812, Trichophyton mentagrophytes IFO 5812, read-out: MIC
[28] = Saccharomyces ruxii 6507, read-out: MIC
[29] = Trichophyton rubrum NHL J, read-out: MIC

Measured: MIC

CCCCCCOc1ccccc1C(=COC)n1ccnc1 (single isomer, unassigned) [Compound 73]
6.25 mg/L: [1] | [6] | [7] | [8] | Sarcina lutea ATCC 9341 | [13] | [14] | [15] | [16] | [18] | [19]
1.56 mg/L: [2] | [4]; Trichophyton mentagrophytes IFO 5812 | Saccharomyces ruxii 6507; Saccharomyces, 6507, Saccharomyces ruxii 6507 | [23]
0.78 mg/L: [17]
3.12 mg/L: [5] | [20] | [21] | [22] | [25]
50 mg/L: Candida albicans Yu-1200 | [10] | [24]
12.5 mg/L: [3] | [9] | [11] | [12] | [26]

CCCCCCOc1ccccc1C(=CCl)n1ccnc1 (single isomer, unassigned) [Compound 83]
12.5 mg/L: [3] | Candida albicans Yu-1200 | [9] | [11] | [12] | [16] | [19]
50 mg/L: [24]
< 0.2 mg/L: [2] | [4]; [27] | [5] | Saccharomyces ruxii 6507; [28] | [17] | [21] | [23]; [29]
1.56 mg/L: [20] | [22]
3.12 mg/L: Sarcina lutea ATCC 9341
25 mg/L: [7] | [10] | [15] | [26]
6.25 mg/L: [1] | [6] | [8] | [13] | [14] | [18] | [25]

CCOc1ccccc1C(=CSCc1ccccc1)n1ccnc1 [Compound 7]
6.25 mg/L: [8] | [15] | [16] | [20] | [26]
0.78 mg/L: [4]; [27] | Saccharomyces ruxii 6507; [28]
50 mg/L: [7] | [11] | [12]
1.56 mg/L: [22]
100 mg/L: [19] | [24]
> 100 mg/L: Candida albicans Yu-1200
3.12 mg/L: [5]
25 mg/L: [6] | [13] | [18] | [25]
< 0.2 mg/L: [2] | [10] | [17] | [21] | [23]; [29]
0.39 mg/L: [14]
12.5 mg/L: [1] | [3] | [9] | Sarcina lutea ATCC 9341

CCCCOc1ccccc1C(=C(Br)Br)n1ccnc1 [Compound 93]
0.39 mg/L: [2] | [23]; [29]
1.56 mg/L: [5] | [21]
6.25 mg/L: [20] | [22] | [25]
50 mg/L: [11] | [14]
100 mg/L: [24]
< 0.2 mg/L: [4]; [27] | [10] | Saccharomyces ruxii 6507; [28] | [17]
> 100 mg/L: [3] | [7] | Candida albicans Yu-1200 | [15] | [16] | [19] | [26]
25 mg/L: [8] | [9] | [12] | Sarcina lutea ATCC 9341 | [13] | [18]
12.5 mg/L: [1] | [6]
